Values of other authors in US20030232787A1, “Combinations of an endothelin receptor antagonist and an antiepileptic compound having pain alleviating properties or analgesic” (priority 2002, published 2003).
Square brackets hold non-standard residues; d marks the D form. Peptide text beside a SMILES is read from it.

Experiments:
[1] = test system: rat model of diabetic neuropathy; conditions: Jarvis et al. 2000; cited from earlier work
[2] = test system: mouse model of inflammation and hyperalgesia; conditions: Piovezan et al. 2000; cited from earlier work
[3] = test system: streptozotocin-induced static allodynia; conditions: rat; Field et al.; cited from earlier work

CCCCN(CCCC)C(=O)CN1C[C@H](c2ccc3c(c2)OCO3)[C@@H](C(=O)O)[C@@H]1c1ccc(OC)cc1 [ABT-627, 2R-(4-Methoxyphenyl)-4S-(1,3-benzodioxol-5-yl)-1-(N,N-di(n-butyl)aminocarbonyl-methyl)-pyrrolidine-3R-carboxylic acid]
effect on pain [1]: attenuate pain

CC(C)C[C@@H]1NC(=O)[C@@H](C(C)C)NC(=O)[C@@H]2CCCN2C(=O)[C@@H](CC(=O)O)NC(=O)[C@@H](Cc2c[nH]c3ccccc23)NC1=O [BQ-123] (cyclo(L[dW][dD]P[dV]))
effect on pain [2]: alleviate pain

CC(NC(=O)C(C)(Cc1c[nH]c2ccccc12)NC(=O)OCc1cc2ccccc2o1)c1ccccc1 (stereo not drawn) [[2-(1H-indol-3-yl)-1-methyl-1-(1-phenyl-ethylcarbamoyl)-ethyl]-carbamic acid benzofuran-2-ylmethyl ester]
effect on maintenance of streptozotocin-induced static allodynia [3]: block the maintenance of streptozotocin-induced static allodynia
